Key:
[1] = system: naive CD62LhiCD4+CD25− LN T cells; experiment: Foxp3 induction in newly activated naive CD4 T cells (intracellular staining); format: cell-based, mouse; conditions: for effect on Foxp3 expression (in words): newly activated T cells deprived of TCR signals; for percentage of cells expressing Foxp3: added 18 hours after activation with TCR signal deprivation, read within 24-48 hours; for Foxp3 expression in control cultures, TCR signal deprived cultures subtracted: serum free AIM-V medium, without anti TGFβ and SB431542, 24-48 hours / 2 days
Protocol: Mouse strains, cell sorting and culture Animal work was carried out according the Animals (Scientific Procedures) Act, UK. Lymph node (LN) cells were stained, analysed and sorted by flow cytometry as described (Cobb et al 2005 J. Exp. Med. 201: 1367-1373). Intracellular staining for Foxp3 protein was done as advised by the manufacturers (eBiosciences.com). The phosphorylation syatus of S6 ribosomal protein was determined using anti pS6 Ser235/236 (Cellsignaling cat.no. 2211, http://www.cellsignal.com) using the eBioscience Foxp3 staining kit and anti rabbit IgG-FITC or IgG-Cy5 (Jackson Immunoresearch). For induction of Foxp3 expression, sorted LN CD4+ CD25− CD62Lhi T cells were cultured at 1-3×10^6/ml with plate bound anti-TCRβ. […] After 18 hours the cells were either left in place for continued TCR stimulation or moved to uncoated wells with the indicated additives. To assess regulatory function, CD4 T cells cultured as indicated were titrated into round bottom wells containing either 1×10^5 CFSE labeled total LN cells or 5×10^4 CFSE labeled CD4^+ CD25^− T cells and 1×10^5 mitomycin-C treated (25 μg/ml, 20 min, 37° C.) T cell depleted splenocytes with the indicated concentrations of anti CD3 (2C11, Pharmingen). CD4 T cell CFSE profiles were recorded between 48 and 72 hours later.
Mice, Cell Sorting and Culture. Animal work was carried out according to the Animals (Scientific Procedures) Act, UK. Lymph node (LN) cells or thymocytes from wild type were stained, analysed and sorted by flow cytometry as described (Thompson et al., 2007 Immunity VoI 26 pp 335-344) from wild type (C57BL/6, BALB/c or C57BL/6×129) mice or from Rag1 deficient H2^b AND TCR transgenic mice. Antigen presenting cells were derived from bone marrow in the presence of GM-CSF and incubated with antigenic peptide. Intracellular staining for Foxp3 protein was done as advised by the manufacturers (eBiosciences.com). The phosphorylation status of S6 ribosomal protein was determined using anti pS6 Ser235/236 (Cell Signaling cat.no. 2211, http://www.cellsignal.com) using the eBioscience Foxp3 staining kit and anti rabbit IgG-FITC or IgG-Cy5 (Jackson ImmunoResearch). […] After 18 hours the cells were either left in place for continued TCR stimulation or moved to uncoated wells with the indicated additives. To assess regulatory function, CD4 T cells cultured as indicated were titrated into round bottom wells containing either 1×10^5 CFSE labeled total LN cells or 5×10^4 CFSE labeled CD4^+CD25^− T cells and 1×10^5 mitomycin-C treated (25 μg/ml, 20 min, 37° C.) T cell depleted splenocytes with the indicated concentrations of anti CD3 (2C11, Pharmingen). CD4 T cell CFSE profiles were recorded between 48 and 72 hours later.

PI4KIIIα = PI4KIIIα (Homo sapiens, UniProt P42356); conditions: unit inferred; read-out: Specificity for PI4KIIIα (IC50 determined in vitro); cited from earlier work
Chain of PI4KIIIα (P42356 whole entry): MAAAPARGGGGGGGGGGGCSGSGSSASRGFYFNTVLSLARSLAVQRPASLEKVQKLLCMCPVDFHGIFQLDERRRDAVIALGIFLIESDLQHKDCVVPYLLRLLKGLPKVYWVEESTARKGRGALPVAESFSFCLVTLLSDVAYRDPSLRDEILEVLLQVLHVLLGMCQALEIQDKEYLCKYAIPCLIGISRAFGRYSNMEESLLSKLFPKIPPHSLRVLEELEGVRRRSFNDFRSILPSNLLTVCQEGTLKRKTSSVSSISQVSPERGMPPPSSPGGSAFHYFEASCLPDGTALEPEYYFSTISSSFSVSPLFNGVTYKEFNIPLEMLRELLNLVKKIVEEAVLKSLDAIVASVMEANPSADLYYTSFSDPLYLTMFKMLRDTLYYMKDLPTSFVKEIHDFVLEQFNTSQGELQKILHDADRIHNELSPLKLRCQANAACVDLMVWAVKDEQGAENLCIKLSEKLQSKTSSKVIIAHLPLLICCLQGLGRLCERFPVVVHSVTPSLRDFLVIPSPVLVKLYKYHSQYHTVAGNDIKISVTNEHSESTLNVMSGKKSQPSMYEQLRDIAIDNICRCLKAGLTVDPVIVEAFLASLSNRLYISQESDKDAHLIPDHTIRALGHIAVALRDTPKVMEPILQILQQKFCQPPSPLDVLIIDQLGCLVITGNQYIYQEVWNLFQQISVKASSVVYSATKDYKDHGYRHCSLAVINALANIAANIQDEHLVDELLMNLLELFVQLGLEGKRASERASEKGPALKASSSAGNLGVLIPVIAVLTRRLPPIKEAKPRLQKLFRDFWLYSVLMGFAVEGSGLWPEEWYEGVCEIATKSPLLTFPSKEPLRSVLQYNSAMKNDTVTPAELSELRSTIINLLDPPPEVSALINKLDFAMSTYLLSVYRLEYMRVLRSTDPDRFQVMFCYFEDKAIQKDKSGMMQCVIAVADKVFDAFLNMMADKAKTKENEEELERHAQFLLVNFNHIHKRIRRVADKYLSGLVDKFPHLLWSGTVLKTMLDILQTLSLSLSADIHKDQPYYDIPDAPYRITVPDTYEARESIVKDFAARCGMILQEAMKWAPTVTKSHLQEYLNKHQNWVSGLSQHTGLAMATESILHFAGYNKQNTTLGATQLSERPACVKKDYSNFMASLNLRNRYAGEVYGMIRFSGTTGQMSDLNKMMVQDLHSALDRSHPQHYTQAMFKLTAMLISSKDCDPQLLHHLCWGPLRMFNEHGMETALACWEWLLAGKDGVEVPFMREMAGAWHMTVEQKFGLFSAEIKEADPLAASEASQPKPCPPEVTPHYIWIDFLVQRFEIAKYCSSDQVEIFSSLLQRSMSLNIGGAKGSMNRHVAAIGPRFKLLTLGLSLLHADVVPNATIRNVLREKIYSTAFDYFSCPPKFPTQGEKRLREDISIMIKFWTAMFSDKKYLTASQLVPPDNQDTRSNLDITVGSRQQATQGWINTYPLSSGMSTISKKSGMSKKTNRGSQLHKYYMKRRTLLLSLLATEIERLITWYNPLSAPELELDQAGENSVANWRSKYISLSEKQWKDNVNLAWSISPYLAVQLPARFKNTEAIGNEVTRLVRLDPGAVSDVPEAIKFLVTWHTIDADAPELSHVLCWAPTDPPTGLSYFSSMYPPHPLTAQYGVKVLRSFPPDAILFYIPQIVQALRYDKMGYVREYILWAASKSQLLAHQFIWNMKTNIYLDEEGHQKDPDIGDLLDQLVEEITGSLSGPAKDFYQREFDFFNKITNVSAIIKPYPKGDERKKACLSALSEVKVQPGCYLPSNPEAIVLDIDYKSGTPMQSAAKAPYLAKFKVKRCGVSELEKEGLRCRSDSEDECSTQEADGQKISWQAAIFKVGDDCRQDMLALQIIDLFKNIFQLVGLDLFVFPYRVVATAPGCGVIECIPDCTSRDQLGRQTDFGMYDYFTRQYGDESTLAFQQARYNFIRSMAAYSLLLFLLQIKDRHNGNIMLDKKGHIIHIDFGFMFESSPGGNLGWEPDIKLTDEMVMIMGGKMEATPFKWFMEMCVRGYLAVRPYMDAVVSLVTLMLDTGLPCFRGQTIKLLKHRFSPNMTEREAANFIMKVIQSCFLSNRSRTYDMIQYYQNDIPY

PI4P5KIα [2] = conditions: second PI4P5KIα line; unit inferred; read-out: Specificity for PI4P5KIα (IC50 determined in vitro); cited from earlier work
ATM = ATM (Homo sapiens, UniProt Q13315); conditions: unit inferred; read-out: Specificity for ATM (IC50 determined in vitro); cited from earlier work
ATR = ATR (Homo sapiens, UniProt Q13535); conditions: unit inferred; read-out: Specificity for ATR (IC50 determined in vitro); cited from earlier work
PI4KIIα = PI4KIIα (Homo sapiens, UniProt Q9BTU6); conditions: unit inferred; read-out: Specificity for PI4KIIα (IC50 determined in vitro); cited from earlier work
Chain of PI4KIIα (Q9BTU6 whole entry): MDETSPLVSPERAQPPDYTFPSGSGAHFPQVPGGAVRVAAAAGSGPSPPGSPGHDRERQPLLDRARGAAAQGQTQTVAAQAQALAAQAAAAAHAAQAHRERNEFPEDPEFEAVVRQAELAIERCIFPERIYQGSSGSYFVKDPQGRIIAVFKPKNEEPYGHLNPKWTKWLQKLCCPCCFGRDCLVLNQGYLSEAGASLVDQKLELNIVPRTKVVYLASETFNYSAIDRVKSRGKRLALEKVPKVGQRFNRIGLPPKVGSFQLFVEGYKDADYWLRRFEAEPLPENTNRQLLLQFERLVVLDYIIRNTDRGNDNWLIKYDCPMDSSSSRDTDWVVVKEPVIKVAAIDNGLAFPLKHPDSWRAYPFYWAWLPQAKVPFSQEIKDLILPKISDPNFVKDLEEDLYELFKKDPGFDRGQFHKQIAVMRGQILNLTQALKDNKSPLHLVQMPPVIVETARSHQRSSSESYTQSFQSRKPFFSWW

PI3KC2α = PI3KC2α (Homo sapiens, UniProt O00443); conditions: unit inferred; read-out: Specificity for PI3KC2α (IC50 determined in vitro); cited from earlier work
Chain of PI3KC2α (O00443 whole entry, species assumed): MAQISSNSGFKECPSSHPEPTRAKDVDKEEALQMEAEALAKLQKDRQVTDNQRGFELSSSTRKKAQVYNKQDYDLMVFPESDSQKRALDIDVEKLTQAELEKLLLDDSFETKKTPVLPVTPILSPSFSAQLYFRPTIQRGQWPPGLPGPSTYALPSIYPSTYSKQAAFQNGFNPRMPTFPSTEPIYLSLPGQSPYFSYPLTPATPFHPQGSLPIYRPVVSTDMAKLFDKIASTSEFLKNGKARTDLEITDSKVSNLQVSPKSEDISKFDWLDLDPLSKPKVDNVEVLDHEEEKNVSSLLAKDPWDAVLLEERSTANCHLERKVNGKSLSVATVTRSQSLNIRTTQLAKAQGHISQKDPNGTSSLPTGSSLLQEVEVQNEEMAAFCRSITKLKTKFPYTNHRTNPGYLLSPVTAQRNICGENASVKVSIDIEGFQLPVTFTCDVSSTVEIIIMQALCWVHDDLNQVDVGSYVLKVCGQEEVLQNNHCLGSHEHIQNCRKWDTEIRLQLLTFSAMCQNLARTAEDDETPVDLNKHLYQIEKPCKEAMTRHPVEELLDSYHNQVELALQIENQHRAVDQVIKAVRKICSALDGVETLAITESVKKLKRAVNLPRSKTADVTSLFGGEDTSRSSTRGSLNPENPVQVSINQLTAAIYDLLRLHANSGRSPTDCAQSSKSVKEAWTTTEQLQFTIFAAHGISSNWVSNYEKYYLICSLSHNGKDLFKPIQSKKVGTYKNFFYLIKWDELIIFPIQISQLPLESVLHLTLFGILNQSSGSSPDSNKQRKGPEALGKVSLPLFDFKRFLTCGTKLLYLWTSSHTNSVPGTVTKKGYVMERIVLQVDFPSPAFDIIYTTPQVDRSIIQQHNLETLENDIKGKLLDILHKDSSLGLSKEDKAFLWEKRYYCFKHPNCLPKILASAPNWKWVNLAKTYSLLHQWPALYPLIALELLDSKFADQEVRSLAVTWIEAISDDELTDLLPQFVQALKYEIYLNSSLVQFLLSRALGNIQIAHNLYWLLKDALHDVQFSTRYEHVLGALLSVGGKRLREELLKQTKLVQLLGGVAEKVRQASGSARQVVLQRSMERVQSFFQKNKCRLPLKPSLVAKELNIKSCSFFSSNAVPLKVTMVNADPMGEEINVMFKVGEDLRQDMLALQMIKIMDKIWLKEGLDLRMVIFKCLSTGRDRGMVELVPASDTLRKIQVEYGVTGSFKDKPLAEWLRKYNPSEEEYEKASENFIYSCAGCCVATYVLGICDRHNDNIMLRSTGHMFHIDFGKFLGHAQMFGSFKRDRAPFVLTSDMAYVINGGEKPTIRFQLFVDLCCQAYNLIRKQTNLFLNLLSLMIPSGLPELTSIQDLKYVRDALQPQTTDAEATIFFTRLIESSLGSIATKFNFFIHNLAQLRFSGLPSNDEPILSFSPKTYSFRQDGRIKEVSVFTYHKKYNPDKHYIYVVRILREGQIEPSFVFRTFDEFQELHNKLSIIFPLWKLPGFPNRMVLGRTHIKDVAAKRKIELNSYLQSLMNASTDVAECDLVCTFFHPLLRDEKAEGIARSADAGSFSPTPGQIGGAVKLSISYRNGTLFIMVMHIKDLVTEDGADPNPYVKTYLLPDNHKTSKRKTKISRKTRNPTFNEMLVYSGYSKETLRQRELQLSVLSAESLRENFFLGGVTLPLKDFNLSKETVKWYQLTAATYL

DNA-PK = DNA-PK (Homo sapiens, UniProt P78527); conditions: unit inferred; read-out: Specificity for DNA-PK (IC50 determined in vitro); cited from earlier work
PI3KC2β = PI3KC2β (Homo sapiens, UniProt O00750); conditions: unit inferred; read-out: Specificity for PI3KC2β (IC50 determined in vitro); cited from earlier work
PI4KIIIβ = PI4KIIIβ (Homo sapiens, UniProt Q9UBF8); conditions: unit inferred; read-out: Specificity for PI4KIIIβ (IC50 determined in vitro); cited from earlier work
Chain of PI4KIIIβ (Q9UBF8 whole entry): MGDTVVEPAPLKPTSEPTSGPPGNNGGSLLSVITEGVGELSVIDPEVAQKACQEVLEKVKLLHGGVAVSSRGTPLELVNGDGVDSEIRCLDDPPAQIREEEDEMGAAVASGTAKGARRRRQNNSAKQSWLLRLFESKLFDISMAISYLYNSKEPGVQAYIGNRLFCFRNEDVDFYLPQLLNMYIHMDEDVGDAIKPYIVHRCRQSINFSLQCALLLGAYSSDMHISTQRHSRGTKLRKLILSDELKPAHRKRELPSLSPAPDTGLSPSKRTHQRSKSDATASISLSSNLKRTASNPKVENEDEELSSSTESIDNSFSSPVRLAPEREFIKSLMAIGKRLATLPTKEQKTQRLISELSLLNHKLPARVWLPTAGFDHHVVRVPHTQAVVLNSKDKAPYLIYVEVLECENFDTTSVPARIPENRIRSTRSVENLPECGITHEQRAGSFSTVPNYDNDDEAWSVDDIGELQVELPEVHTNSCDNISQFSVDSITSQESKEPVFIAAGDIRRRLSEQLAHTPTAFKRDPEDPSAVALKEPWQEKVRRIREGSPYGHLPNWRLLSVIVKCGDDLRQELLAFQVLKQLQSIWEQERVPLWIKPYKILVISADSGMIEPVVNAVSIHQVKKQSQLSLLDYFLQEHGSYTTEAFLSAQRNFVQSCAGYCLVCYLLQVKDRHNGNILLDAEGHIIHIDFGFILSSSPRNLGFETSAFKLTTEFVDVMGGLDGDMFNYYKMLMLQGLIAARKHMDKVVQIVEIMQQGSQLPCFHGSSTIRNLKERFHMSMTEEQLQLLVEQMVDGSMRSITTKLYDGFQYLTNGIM

PI5P4KIIβ = biological target: T1, PI5P4KIIβ (Homo sapiens, UniProt P78356); conditions: unit inferred; read-out: Specificity for PI5P4KIIβ (IC50 determined in vitro); cited from earlier work
T1 sequence (P78356 1-416): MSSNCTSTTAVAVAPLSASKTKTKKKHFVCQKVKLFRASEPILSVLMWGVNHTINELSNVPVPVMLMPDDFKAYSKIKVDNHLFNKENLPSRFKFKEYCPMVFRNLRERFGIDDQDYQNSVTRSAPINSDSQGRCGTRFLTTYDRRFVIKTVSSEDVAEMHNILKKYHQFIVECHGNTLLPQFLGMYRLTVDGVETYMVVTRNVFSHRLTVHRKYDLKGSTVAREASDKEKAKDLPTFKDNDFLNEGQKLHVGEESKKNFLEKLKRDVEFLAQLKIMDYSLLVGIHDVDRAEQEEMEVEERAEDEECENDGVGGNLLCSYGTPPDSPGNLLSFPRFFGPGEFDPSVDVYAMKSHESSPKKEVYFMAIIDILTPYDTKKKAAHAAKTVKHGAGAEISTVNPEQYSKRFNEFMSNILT

PI4P5KIα [3] = biological target: PI4P5KIα (Homo sapiens, UniProt Q99755); conditions: first PI4P5KIα line; unit inferred; read-out: Specificity for PI4P5KIα (IC50 determined in vitro); cited from earlier work
mTORC1 = mTORC1 (Homo sapiens, UniProt P42345); conditions: unit inferred; read-out: Specificity for mTORC1 (IC50 determined in vitro); cited from earlier work
[4] = serum free AIM-V, anti TGFβ 3 μg/ml, SB431542 20 μM

O=c1[nH]c2ccccc2n1C1CCN(Cc2ccc(-c3nc4cc5nc[nH]c5cc4nc3-c3ccccc3)cc2)CC1 [Akti-1/2]
effect on Foxp3 expression (in words) [1]: enhanced Foxp3 expression
effect on Foxp3 expression (in words) ([1]; listed as Akti 1/2): induces Foxp3 expression

CC(C)C[C@H](NC(=O)[C@H](Cc1ccccc1)C[C@@H](O)[C@H](Cc1ccccc1)NC(=O)OC(C)(C)C)C(=O)N[C@@H](Cc1ccccc1)C(N)=O [L-685458]
effect on Foxp3 expression (in words) [1]: None of these detectably enhanced the expression of Foxp3

O=c1cc(N2CCNCC2)oc2c(-c3ccccc3)cccc12 [Ly303511, 2-piperazinyl-8-phenyl-4H-1-benzopyran-4-one]
percentage of cells expressing Foxp3 [1]: 6.6±3.0%

Oc1cccc(-c2nc(N3CCOCC3)c3oc4ncccc4c3n2)c1 [PI-103]
IC50 (PI4KIIIα): > 100000 nM
IC50 (PI4P5KIα [2]): > 100000 nM
IC50 (ATM): 920 nM
IC50 (ATR): 850 nM
IC50 (PI4KIIα): > 100000 nM
IC50 (PI3KC2α): ~1000 nM
increase in Foxp3 expressing cells over and above TCR deprivation alone ([1]; IC-87114 down to 0.01 μM): > 20%
effect on Foxp3 expression (in words) [1]: strongly induced Foxp3
Foxp3 expression in control cultures, TCR signal deprived cultures subtracted [1]: 35.1±3.8%

Cc1ccc([N+](=O)[O-])cc1S(=O)(=O)N(C)/N=C/c1cnc2ccc(Br)cn12 [PIK75]
toxicity in the Foxp3 induction assay ([1]; over the duration of the assay): toxicity over the duration of our assay

COc1ccc2c(c1OC)N=C(NC(=O)c1cccnc1)N1CCN=C21 [PIK90]
IC50 (PI4KIIIα): 830 nM
IC50 (DNA-PK): 13 nM
IC50 (PI3KC2β): 64 nM
IC50 (PI4P5KIα [2]): > 100000 nM
IC50 (PI4KIIIβ): 3100 nM
IC50 (ATM): 610 nM
IC50 (ATR): 15000 nM
IC50 (PI5P4KIIβ): > 100000 nM
IC50 (PI4KIIα): > 100000 nM
IC50 (PI4P5KIα [3]): > 100000 nM
IC50 (PI3KC2α): 47 nM
effect on Foxp3 expression at 0.1 μM ([1]; 0.1 μM): strongly induced Foxp3
Foxp3 expression in control cultures, TCR signal deprived cultures subtracted [1]: 36.0±12.9%
IC50 (mTORC1): 1050 nM

O=C1NC(=O)/C(=C\c2ccc3nccnc3c2)S1 [SA-605240]
effect on Foxp3 expression (in words) ([1]; listed as AS-605240): affected Foxp3 only at concentrations far in excess of its IC50 for p110γ

NC(=O)c1ccc(-c2nc(-c3ccc4c(c3)OCO4)c(-c3ccccn3)[nH]2)cc1 [SB431542]
effect on Foxp3 induction by PI3K/mTOR inhibitors [1, 4]: had no effect
reduction of Foxp3 induction by TGFβ [1, 4]: 96%

COC[C@H]1OC(=O)c2coc3c2[C@@]1(C)C1=C(C3=O)[C@@H]2CCC(=O)[C@@]2(C)C[C@H]1OC(C)=O [Wortmannin]
percentage of cells expressing Foxp3 [1]: 17.3±5.3%

CO[C@H]1C[C@@H]2CC[C@@H](C)[C@@](O)(O2)C(=O)C(=O)N2CCCC[C@H]2C(=O)O[C@H]([C@H](C)C[C@@H]2CC[C@@H](O)[C@H](OC)C2)CC(=O)[C@H](C)/C=C(\C)[C@@H](O)[C@@H](OC)C(=O)[C@H](C)C[C@H](C)/C=C/C=C/C=C/1C [rapamycin]
% Foxp3+ cells (nutrient deprivation experiment) ([1]; 18 hour activated CD4 T cells): 25 % Foxp3^+
percentage of cells expressing Foxp3 [1]: 26.8±14.4%
Foxp3 expression in control cultures, TCR signal deprived cultures subtracted [1]: 28.6±9.0%

Reference: patent US9314485B2, “Use of PI3K M-TOR and AKT inhibitors to induce FOXP3 expression and generate regulatory T cells” (Medical Research Council, priority 2006, dated 2016)
